Assay results from US7723323B2, “Pharmaceutical use of fused 1,2,4-triazoles” (High Point Pharmaceuticals, LLC, priority 2003, dated 2010).

Biological target: T1, h-11βHSD1 (Homo sapiens, UniProt P28845)
T1 construct: made in house; host or cells: yeast (extract of transformed yeast)
Experiment: 11βHSD1 enzyme assay (SPA)
Format: biochemical
Settings: extract of yeast transformed with h-11βHSD1; 120 nM 3H-cortisone, 4 mM β-NADPH, 60 min at 30° C.
Description: ^3H-cortisone and anti-rabbit Ig coated scintillation proximity assay (SPA) beads were purchased from Amersham Pharmacia Biotech, β-NADPH was from Sigma and rabbit anti-cortisol antibodies were from Fitzgerald. An extract of yeast transformed with h-11βHSD1 (Hult et al., FEBS Lett. 441, 25 (1998)) was used as the source of enzyme. The test compounds were dissolved in DMSO (10 mM). All dilutions were performed in a buffer containing 50 mM TRIS-HCl (Sigma Chemical Co), 4 mM EDTA (Sigma Chemical Co), 0.1% BSA (Sigma Chemical Co), 0.01% Tween-20 (Sigma Chemical Co) and 0.005% bacitracin (Novo Nordisk A/S), pH=7.4. Optiplate 96 wells plates were supplied by Packard. The amount of ^3H-cortisol bound to the SPA beads was measured on TopCount NXT, Packard.
h-11βHSD1, 120 nM ^3H-cortisone, 4 mM β-NADPH, antibody (1:200), serial dilutions of test compound and SPA particles (2 mg/well) were added to the wells. The reaction was initiated by mixing the different components and was allowed to proceed under shaking for 60 min at 30° C. […] Data was analysed using GraphPad Prism software.

T1 sequence (P28845 whole entry): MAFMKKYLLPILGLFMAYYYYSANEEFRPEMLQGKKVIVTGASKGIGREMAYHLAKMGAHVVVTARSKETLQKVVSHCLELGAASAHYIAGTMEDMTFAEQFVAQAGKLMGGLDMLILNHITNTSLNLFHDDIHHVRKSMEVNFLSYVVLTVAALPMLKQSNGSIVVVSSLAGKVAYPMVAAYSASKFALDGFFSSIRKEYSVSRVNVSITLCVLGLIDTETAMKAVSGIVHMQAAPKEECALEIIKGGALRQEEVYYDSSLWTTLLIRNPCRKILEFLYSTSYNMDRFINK

SMILES | IC50 [µM]
Brc1ccccc1-c1nnc2n1CCCCC2 [Example 1, 3-(2-Bromo-phenyl)-6,7,8,9-tetrahydro-5H-[1,2,4]triazolo[4,3-a]azepine] | 0.23
c1ccc(OCc2ccccc2-c2nnc3n2CCCCC3)cc1 [Example 1-a] | 0.11
